Assay results reported in patent US12187742B2 (XRAD Therapeutics, Inc., priority 2018, dated 2025).
pIC50: −log10 of the molar value. Counter-ions that a name gives are not always drawn.

Key:
[1] = molecular target: DNA-PK (Homo sapiens (Human), UniProt P78527); assay: DNA-PK Enzyme-Linked Immunosorbent Assay (phosphorylation of GST-p53 (1-101) peptide); type: biochemical; conditions: ELISA, ATP 20 μM
How it was run: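 ELISA with plate-bound GST-p53 (1-101) phosphorylated by DNA-PK (0.1 μg/mL final) with 20 μM ATP for 1 h at 25 °C. Compounds tested over 10 3-fold doses from 100 nM top final. Phospho-p53 Ser15 detected by antibody, HRP and TMB, absorbance at 450 nm.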

[2] = molecular target: ATM (Homo sapiens (Human), UniProt Q13315); assay: ATM in Cell Western Assay (pKAP1 in etoposide-treated MCF-7 cells); type: cell-based; conditions: MCF-7 cells, etoposide 100 μM, 1 hr, pKAP1 readout
How it was run: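 Cells received compounds in a 10-dose, 3-fold series from a 1 μM final top concentration, then 100 μM etoposide, for 1 hr at 37° C. They were then fixed with paraformaldehyde and permeabilized with 0.1% Triton X-100. After immunostaining, plates were scanned on an infrared imager.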

Chain of ATM (Q13315 whole entry): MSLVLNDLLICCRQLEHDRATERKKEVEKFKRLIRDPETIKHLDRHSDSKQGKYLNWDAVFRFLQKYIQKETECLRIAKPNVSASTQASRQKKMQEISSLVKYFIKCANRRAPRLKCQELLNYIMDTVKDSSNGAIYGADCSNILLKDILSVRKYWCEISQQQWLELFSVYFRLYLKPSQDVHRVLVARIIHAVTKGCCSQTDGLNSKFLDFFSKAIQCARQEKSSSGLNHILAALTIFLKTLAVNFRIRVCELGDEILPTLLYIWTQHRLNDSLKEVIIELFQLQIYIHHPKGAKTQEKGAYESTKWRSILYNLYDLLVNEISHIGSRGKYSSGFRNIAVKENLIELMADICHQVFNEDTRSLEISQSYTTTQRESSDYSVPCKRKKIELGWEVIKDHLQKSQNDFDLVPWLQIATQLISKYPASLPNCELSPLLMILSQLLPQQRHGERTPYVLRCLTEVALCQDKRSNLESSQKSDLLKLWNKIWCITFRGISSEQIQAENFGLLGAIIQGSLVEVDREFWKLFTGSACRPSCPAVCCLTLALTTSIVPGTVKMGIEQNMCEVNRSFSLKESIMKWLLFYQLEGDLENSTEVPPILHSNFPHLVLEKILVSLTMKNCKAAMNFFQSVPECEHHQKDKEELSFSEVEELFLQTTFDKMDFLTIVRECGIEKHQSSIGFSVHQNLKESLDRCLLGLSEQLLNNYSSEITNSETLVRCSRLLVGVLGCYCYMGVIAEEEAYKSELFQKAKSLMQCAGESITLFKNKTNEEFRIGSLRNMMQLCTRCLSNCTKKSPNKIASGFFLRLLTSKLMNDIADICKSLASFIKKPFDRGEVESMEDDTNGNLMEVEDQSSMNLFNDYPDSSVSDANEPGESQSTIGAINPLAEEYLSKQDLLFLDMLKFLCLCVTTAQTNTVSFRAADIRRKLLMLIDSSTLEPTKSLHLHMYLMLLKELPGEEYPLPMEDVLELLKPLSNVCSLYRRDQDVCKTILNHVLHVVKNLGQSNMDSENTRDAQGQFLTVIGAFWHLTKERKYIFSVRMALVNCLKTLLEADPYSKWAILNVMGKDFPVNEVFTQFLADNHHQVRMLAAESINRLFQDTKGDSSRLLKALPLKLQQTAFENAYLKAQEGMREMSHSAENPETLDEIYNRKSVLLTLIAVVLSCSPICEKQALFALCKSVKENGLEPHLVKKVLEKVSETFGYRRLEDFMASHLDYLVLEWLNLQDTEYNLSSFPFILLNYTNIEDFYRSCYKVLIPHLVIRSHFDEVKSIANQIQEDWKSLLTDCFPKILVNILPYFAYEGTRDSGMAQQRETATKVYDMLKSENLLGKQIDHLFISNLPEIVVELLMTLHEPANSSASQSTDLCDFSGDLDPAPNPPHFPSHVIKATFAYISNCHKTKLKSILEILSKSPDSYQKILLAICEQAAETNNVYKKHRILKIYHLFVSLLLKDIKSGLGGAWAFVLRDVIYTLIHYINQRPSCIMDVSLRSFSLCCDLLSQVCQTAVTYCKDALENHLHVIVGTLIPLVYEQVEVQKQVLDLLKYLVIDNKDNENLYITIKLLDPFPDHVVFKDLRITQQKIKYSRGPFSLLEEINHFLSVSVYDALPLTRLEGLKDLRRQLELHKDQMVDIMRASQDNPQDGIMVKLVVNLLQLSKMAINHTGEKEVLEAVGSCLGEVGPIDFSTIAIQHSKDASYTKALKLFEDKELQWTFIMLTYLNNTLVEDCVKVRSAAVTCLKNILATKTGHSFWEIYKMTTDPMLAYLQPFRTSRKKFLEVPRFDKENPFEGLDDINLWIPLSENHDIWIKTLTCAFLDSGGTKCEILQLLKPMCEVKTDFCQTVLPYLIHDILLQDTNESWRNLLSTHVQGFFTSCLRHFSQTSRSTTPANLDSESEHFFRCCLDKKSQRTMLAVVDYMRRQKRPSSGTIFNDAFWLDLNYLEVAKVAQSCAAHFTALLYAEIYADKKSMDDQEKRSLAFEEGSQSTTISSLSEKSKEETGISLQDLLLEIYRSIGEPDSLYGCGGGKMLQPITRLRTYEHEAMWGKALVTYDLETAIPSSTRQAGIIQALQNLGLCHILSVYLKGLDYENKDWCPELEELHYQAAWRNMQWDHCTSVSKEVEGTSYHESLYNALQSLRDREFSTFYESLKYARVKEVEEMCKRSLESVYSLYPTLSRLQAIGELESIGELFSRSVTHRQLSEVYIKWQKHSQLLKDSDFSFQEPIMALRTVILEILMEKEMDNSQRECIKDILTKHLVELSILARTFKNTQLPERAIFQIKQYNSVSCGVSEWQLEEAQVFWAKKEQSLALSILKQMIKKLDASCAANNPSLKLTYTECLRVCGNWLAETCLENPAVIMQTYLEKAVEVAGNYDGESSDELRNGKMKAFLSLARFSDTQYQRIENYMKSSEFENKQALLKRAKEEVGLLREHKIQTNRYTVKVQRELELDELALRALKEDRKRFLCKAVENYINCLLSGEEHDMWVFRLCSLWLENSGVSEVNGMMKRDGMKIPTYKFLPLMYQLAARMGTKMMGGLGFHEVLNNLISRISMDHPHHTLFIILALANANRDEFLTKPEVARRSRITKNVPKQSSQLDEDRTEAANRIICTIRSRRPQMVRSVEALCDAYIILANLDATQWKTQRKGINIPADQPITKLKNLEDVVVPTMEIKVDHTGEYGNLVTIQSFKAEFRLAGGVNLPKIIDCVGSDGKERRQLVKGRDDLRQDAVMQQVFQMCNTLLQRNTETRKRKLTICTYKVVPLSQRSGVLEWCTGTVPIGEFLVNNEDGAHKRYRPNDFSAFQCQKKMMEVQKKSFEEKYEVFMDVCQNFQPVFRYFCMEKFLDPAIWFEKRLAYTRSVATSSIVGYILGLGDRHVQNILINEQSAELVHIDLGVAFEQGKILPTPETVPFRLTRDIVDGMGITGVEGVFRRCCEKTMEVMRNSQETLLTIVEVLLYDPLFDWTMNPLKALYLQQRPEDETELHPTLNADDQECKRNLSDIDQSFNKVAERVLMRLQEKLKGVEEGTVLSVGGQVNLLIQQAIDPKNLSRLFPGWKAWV

CN1C(=O)C2(CCC2)c2c1cnc1ccc(-c3cnc(OCCCN4CCCCC4)c(NS(C)(=O)=O)c3)cc21 [Example 225, N-(5-(3′-Methyl-2′-oxo-2′,3′-dihydrospiro[cyclobutane-1,1′-pyrrolo[2,3-c]quinolin]-8′-yl)-2-(3-(piperidin-1-yl)propoxy)pyridin-3-yl)methanesulfonamide]
pIC50 [1]: > 9.30 | pIC50 [2]: 7.00 to 9.00

CN1C(=O)C2(CCC2)c2c1cnc1ccc(-c3cnc(N4CCC(N(C)C)CC4)c(NS(=O)(=O)N(C)C)c3)cc21 [Example 226, 8′-{6-[4-(Dimethylamino)piperidin-1-yl]-5-[(dimethylsulfamoyl)amino]pyridin-3-yl}-3′-methyl-2′,3′-dihydrospiro[cyclobutane-1,1′-pyrrolo[2,3-c]quinoline]-2′-one]
pIC50 [1]: > 9.30 | pIC50 [2]: 9.00 to 9.30

CN1CCN(c2ncc(-c3ccc4ncc5c(c4c3)C3(CCC3)C(=O)N5C)cc2NS(=O)(=O)C2CC2)CC1 [Example 227, N-(5-(3′-Methyl-2′-oxo-2′,3′-dihydrospiro[cyclobutane-1,1′-pyrrolo[2,3-c]quinolin]-8′-yl)-2-(4-methylpiperazin-1-yl)pyridin-3-yl)cyclopropanesulfonamide hydrochloride]
pIC50 [1]: > 9.30 | pIC50 [2]: 9.00 to 9.30

CN1C(=O)C2(CCC2)c2c1cnc1ccc(-c3cnc(N4CCC(N5CCCCC5)CC4)c(NS(C)(=O)=O)c3)cc21 [Example 228, N-(2-([1,4′-Bipiperidin]-1′-yl)-5-(3′-methyl-2′-oxo-2′,3′-dihydrospiro[cyclobutane-1,1′-pyrrolo[2,3-c]quinolin]-8′-yl)pyridin-3-yl)methanesulfonamide]
pIC50 [1]: > 9.30 | pIC50 [2]: 9.00 to 9.30

CN1CCN(c2ncc(-c3ccc4ncc5c(c4c3)C3(CCC3)C(=O)N5C)cc2NS(C)(=O)=O)CC1 [Example 229, N-(5-(3′-Methyl-2′-oxo-2′,3′-dihydrospiro[cyclobutane-1,1′-pyrrolo[2,3-c]quinolin]-8′-yl)-2-(4-methylpiperazin-1-yl)pyridin-3-yl)methanesulfonamide]
pIC50 [1]: > 9.30 | pIC50 [2]: 9.00 to 9.30

CN1CCN(c2ncc(-c3ccc4ncc5c(c4c3)C3(CCC3)C(=O)N5C)cc2NS(=O)(=O)N(C)C)CC1 [Example 230, 8′-{5-[(Dimethylsulfamoyl)amino]-6-(4-methylpiperazin-1-yl)pyridin-3-yl}-3′-methyl-2′,3′-dihydrospiro[cyclobutane-1,1′-pyrrolo[2,3-c]quinoline]-2′-one]
pIC50 [1]: > 9.30 | pIC50 [2]: 7.00 to 9.00

CN1C(=O)C2(CCC2)c2c1cnc1ccc(-c3cnc(OCCCN4CCCC4)c(NS(=O)(=O)c4ccccc4)c3)cc21 [Example 232, N-(5-(3′-Methyl-2′-oxo-2′,3′-dihydrospiro[cyclobutane-1,1′-pyrrolo[2,3-c]quinolin]-8′-yl)-2-(3-(pyrrolidin-1-yl)propoxy)pyridin-3-yl)benzenesulfonamide]
pIC50 [1]: 9.00 to 9.30 | pIC50 [2]: 7.00 to 9.00

Cc1cc(S(=O)(=O)Nc2cc(-c3ccc4ncc5c(c4c3)C3(CCC3)C(=O)N5C)cnc2N2CCC(N(C)C)CC2)sn1 [Example 233, N-(2-(4-(Dimethylamino)piperidin-1-yl)-5-(3′-methyl-2′-oxo-2′,3′-dihydrospiro[cyclobutane-1,1′-pyrrolo[2,3-c]quinolin]-8′-yl)pyridin-3-yl)-3-methylisothiazole-5-sulfonamide]
pIC50 [1]: 9.00 to 9.30 | pIC50 [2]: 7.00 to 9.00

CN1C(=O)C2(CCC2)c2c1cnc1ccc(-c3cnc(OCCCN4CCCC4)c(NS(=O)(=O)C4CC4)c3)cc21 [Example 235, N-(5-(3′-Methyl-2′-oxo-2′,3′-dihydrospiro[cyclobutane-1,1′-pyrrolo[2,3-c]quinolin]-8′-yl)-2-(3-(pyrrolidin-1-yl)propoxy)pyridin-3-yl)cyclopropanesulfonamide]
pIC50 [1]: 7.00 to 9.00 | pIC50 [2]: 7.00 to 9.00

CN1C(=O)C2(CCC2)c2c1cnc1ccc(-c3cnc(OCCCN4CCCC4)c(NS(C)(=O)=O)c3)cc21 [Example 236, N-(5-(3′-Methyl-2′-oxo-2′,3′-dihydrospiro[cyclobutane-1,1′-pyrrolo[2,3-c]quinolin]-8′-yl)-2-(3-(pyrrolidin-1-yl)propoxy)pyridin-3-yl)methanesulfonamide]
pIC50 [1]: 9.00 to 9.30 | pIC50 [2]: 7.00 to 9.00

CN(C)CCCOc1ncc(-c2ccc3ncc4c(c3c2)C2(CCC2)C(=O)N4)cc1NS(C)(=O)=O [Example 237, N-(2-(3-(Dimethylamino)propoxy)-5-(2′-oxo-2′,3′-dihydrospiro [cyclobutane-1,1′-pyrrolo[2,3-c]quinolin]-8′-yl)pyridin-3-yl)methanesulfonamide]
pIC50 [1]: 7.00 to 9.00 | pIC50 [2]: 7.00 to 9.00

CCS(=O)(=O)Nc1cc(-c2ccc3ncc4c(c3c2)C2(CCC2)C(=O)N4C)cnc1OCCCN(C)C [Example 238, N-(2-(3-(Dimethylamino)propoxy)-5-(3′-methyl-2′-oxo-2′,3′-dihydrospiro [cyclobutane-1,1′-pyrrolo[2,3-c]quinolin]-8′-yl)pyridin-3-yl) ethanesulfonamide]
pIC50 [1]: 7.00 to 9.00 | pIC50 [2]: 7.00 to 9.00

CN(C)CCCOc1ncc(-c2ccc3ncc4c(c3c2)C2(CCC2)C(=O)N4C)cc1NS(=O)(=O)C(F)(F)F [Example 239, N-(2-(3-(Dimethylamino)propoxy)-5-(3′-methyl-2′-oxo-2′,3′-dihydrospiro [cyclobutane-1,1′-pyrrolo[2,3-c]quinolin]-8′-yl)pyridin-3-yl)-1,1,1-trifluoromethane-sulfonamide]
pIC50 [1]: > 9.30 | pIC50 [2]: 7.00 to 9.00

CNCCCOc1ncc(-c2ccc3ncc4c(c3c2)C2(CCC2)C(=O)N4C)cc1NS(C)(=O)=O [Example 240, N-(5-(3′-Methyl-2′-oxo-2′,3′-dihydrospiro[cyclobutane-1,1′-pyrrolo[2,3-c]quinolin]-8′-yl)-2-(3-(methylamino)propoxy)pyridin-3-yl) methanesulfonamide formate]
pIC50 [1]: > 9.30 | pIC50 [2]: 7.00 to 9.00

CCCS(=O)(=O)Nc1cc(-c2ccc3ncc4c(c3c2)C2(CCC2)C(=O)N4C)cnc1OCCCN(C)C [Example 241, N-(2-(3-(Dimethylamino)propoxy)-5-(3′-methyl-2′-oxo-2′,3′-dihydrospiro [cyclobutane-1,1′-pyrrolo[2,3-c]quinolin]-8′-yl)pyridin-3-yl)propane-1-sulfonamide]
pIC50 [1]: 7.00 to 9.00 | pIC50 [2]: 7.00 to 9.00

CN1C(=O)C2(CCC2)c2c1cnc1ccc(-c3cnc(OCCCN4CCCC4)c(NS(=O)(=O)N(C)C)c3)cc21 [Example 242, 8′-(5-[(Dimethylsulfamoyl)amino]-6-[3-(pyrrolidin-1-yl)propoxy]pyridin-3-yl)-3′-methyl-2′,3′-dihydrospiro [cyclobutane-1,1′-pyrrolo[2,3-c]quinoline]-2′-one]
pIC50 [1]: 7.00 to 9.00 | pIC50 [2]: 9.00 to 9.30

CN1CCN(c2ncc(-c3ccc4ncc5c(c4c3)C3(CCC3)C(=O)N5C)cc2NS(=O)(=O)c2ccccc2)CC1 [Example 243, N-(5-(3′-Methyl-2′-oxo-2′,3′-dihydrospiro[cyclobutane-1,1′-pyrrolo[2,3-c]quinolin]-8′-yl)-2-(4-methylpiperazin-l-yl)Pyridin-3-yl)benzenesulfonamide]
pIC50 [1]: 7.00 to 9.00 | pIC50 [2]: 7.00 to 9.00

CN(C)CCCOc1ncc(-c2ccc3ncc4c(c3c2)C2(CCC2)C(=O)N4C)cc1NS(=O)(=O)N1CCCC1 [Example 244, N-(2-(3-(Dimethylamino)propoxy)-5-(3′-methyl-2′-oxo-2′,3′-dihydrospiro [cyclobutane-1,1′-pyrrolo[2,3-c]quinolin]-8′-yl)pyridin-3-yl)pyrrolidine-1-sulfonamide]
pIC50 [1]: 7.00 to 9.00 | pIC50 [2]: 7.00 to 9.00

CCc1ncc(S(=O)(=O)Nc2cc(-c3ccc4ncc5c(c4c3)C3(CCC3)C(=O)N5C)cnc2OCCCN(C)C)s1 [Example 245, N-(2-(3-(Dimethylamino)propoxy)-5-(3′-methyl-2′-oxo-2′,3′-dihydrospiro [cyclobutane-1,1′-pyrrolo [2,3-c]quinolin]-8′-yl)pyridin-3-yl)-2-ethylthiazole-5-sulfonamide]
pIC50 [1]: > 9.30 | pIC50 [2]: 7.00 to 9.00

Cc1cc(S(=O)(=O)Nc2cc(-c3ccc4ncc5c(c4c3)C3(CCC3)C(=O)N5C)cnc2N2CCN(C)CC2)sn1 [Example 246, 3-Methyl-N-(5-(3′-methyl-2′-oxo-2′,3′-dihydrospiro[cyclobutane-1,1′-pyrrolo[2,3-c]quinolin]-8′-yl)-2-(4-methylpiperazin-1-yl)pyridin-3-yl)isothiazole-5-sulfonamide]
pIC50 [1]: > 9.30 | pIC50 [2]: 7.00 to 9.00

CN(C)CCCOc1ncc(-c2ccc3ncc4c(c3c2)C2(CCC2)C(=O)N4C)cc1NS(=O)(=O)C(F)F [Example 247, N-(2-(3-(Dimethylamino)propoxy)-5-(3′-methyl-2′-oxo-2′,3′-dihydrospiro [cyclobutane-1,1′-pyrrolo[2,3-c]quinolin]-8′-yl)pyridin-3-yl)-1,1′-difluoromethane-sulfonamide]
pIC50 [1]: > 9.30 | pIC50 [2]: 7.00 to 9.00

CCNCCOc1ncc(-c2ccc3ncc4c(c3c2)C2(CCC2)C(=O)N4C)cc1NS(C)(=O)=O [Example 248, N-(2-(2-(Ethylamino)ethoxy)-5-(3′-methyl-2′-oxo-2′,3′-dihydrospiro[cyclobutane-1,1′-pyrrolo[2,3-c]quinolin]-8′-yl)pyridin-3-yl) methanesulfonamide]
pIC50 [1]: > 9.30 | pIC50 [2]: 7.00 to 9.00

CNCCOc1ncc(-c2ccc3ncc4c(c3c2)C2(CCC2)C(=O)N4C)cc1NS(C)(=O)=O [Example 249, N-(5-(3′-Methyl-2′-oxo-2′,3′-dihydrospiro[cyclobutane-1,1′-pyrrolo[2,3-c]quinolin]-8′-yl)-2-(2-(methylamino)ethoxy)pyridin-3-yl) methanesulfonamide]
pIC50 [1]: > 9.30 | pIC50 [2]: 7.00 to 9.00
